Laboratory results published in paper PMC8326492, “Novel Mannich bases with strong carbonic anhydrases and acetylcholinesterase inhibition effects: 3-(aminomethyl)-6-{3-[4-(trifluoromethyl)phenyl]acryloyl}-2(3H)-benzoxazolones” (Turkish Journal of Chemistry, 2021).

Legend:
hCA II = hCA II (Homo sapiens, UniProt P00918); experiment: Carbonic anhydrase inhibition assay (esterase, p-nitrophenylacetate), hCA II
Method: (§1) CA inhibition assay was recorded according to previous studies [4,10,27,49,60–64]. The hCA I and II isoenzymes were purified from human red blood cells by sepharose-4B-L-tyrosine-sulfanilamide affinity chromatography [65], which was used as an affinity matrix for selective retention of both hCA isoenzymes [27,66]. […] After sepharose-4B-L-tyrosine-sulfanilamide affinity chromatography, the enzyme quantity was spectrophotometrically measured at 280 nm [68]. […] Purity controls of both CA isoenzymes were performed according to the Laemmli procedure as described in previous studies. Both isoenzymes were visualized by two different acrylamide concentrations (10% and 3% acrylamide), containing 0.1% sodium dodecyl sulfate (SDS) [69,70].

hCA I = hCA I (Homo sapiens, UniProt P00915); experiment: biochemical
Method: as §1

AChE = biological target: T1, AChE (Electrophorus electricus, UniProt O42275); experiment: biochemical; conditions: electric eel AChE; mean from three different assays
T1 construct: AChE enzyme, obtained from electric eel; from tissue; host or cells: electric eel
T1 sequence (O42275 24-633): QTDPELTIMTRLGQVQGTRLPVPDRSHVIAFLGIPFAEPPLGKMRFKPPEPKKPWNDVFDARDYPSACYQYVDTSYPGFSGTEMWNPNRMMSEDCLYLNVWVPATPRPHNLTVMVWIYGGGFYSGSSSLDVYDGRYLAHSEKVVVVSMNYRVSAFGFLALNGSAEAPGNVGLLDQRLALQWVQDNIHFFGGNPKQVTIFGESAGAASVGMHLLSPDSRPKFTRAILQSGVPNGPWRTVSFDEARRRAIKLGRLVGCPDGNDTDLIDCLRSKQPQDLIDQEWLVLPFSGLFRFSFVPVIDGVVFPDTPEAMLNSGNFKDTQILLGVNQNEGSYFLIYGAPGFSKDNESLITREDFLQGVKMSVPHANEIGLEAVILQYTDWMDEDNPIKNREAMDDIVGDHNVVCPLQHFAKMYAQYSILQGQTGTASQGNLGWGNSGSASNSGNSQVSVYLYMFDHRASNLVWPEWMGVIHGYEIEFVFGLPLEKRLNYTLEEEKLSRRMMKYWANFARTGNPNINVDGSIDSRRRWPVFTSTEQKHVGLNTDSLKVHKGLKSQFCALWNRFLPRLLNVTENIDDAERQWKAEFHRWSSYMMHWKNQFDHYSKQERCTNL
Method: Acetylcholinesterase enzyme inhibition assay was performed according to our previous studies. […] The substrates of acetylthiocholine iodide (AChI) and 5,5’-dithiobis(2-nitro-benzoic acid) (DTNB) was used for cholinergic enzymatic reaction. For this purpose, 1 mL of Tris / HCl buffer (1.0 M, pH 8.0) and 10 μL of different concentrations of sample solution were dissolved in deionized water. Then, an aliquot of (50 μL) AChE enzyme was transferred and incubated at room temperature for 10 min. After the incubation period, an aliquot of DTNB (0.5 mM, 50 μL) was added. Then, the enzymatic reaction was started by adding 50 μL of AChI (10 mM).

Chain of hCA I (P00915 whole entry): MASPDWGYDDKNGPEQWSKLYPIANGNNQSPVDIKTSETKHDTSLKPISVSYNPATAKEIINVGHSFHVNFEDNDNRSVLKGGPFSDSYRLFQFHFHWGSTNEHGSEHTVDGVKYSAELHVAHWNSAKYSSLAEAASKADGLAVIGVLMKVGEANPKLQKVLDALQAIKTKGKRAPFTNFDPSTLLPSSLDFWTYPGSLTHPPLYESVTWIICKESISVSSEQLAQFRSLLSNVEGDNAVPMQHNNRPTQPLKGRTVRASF

Row | Compound | Ki (hCA II) [nM] | Ki (hCA I) [nM] | Ki (AChE) [nM]
1 | CCCN(CCC)Cn1c(=O)oc2cc(C(=O)C=Cc3ccc(C(F)(F)F)cc3)ccc21 [Compound 1c, 3-[(Dipropylamino)methyl]-6-{3-[4-(trifluoromethyl)phenyl]acryloyl}benzoxazol-2(3H)-one] | 24.6 ± 4.7 | 22.3 ± 2.3 | 116 ± 32
2 | CCN(CC)Cn1c(=O)oc2cc(C(=O)C=Cc3ccc(C(F)(F)F)cc3)ccc21 [Compound 1b, 3-[(Diethylamino)methyl]-6-{3-[4-(trifluoromethyl)phenyl]acryloyl}benzoxazol-2(3H)-one] | 37.6 ± 4.3 | 36.8 ± 7.7 | 142 ± 22.1
3 | O=C(/C=C/c1ccc(C(F)(F)F)cc1)c1ccc2[nH]c(=O)oc2c1 [Compound 1, (E )-6-{3-[4-(trifluoromethyl)phenyl]acryloyl}benzoxazol-2(3H )-one] | 33.6 ± 4.5 | 154 ± 9.3 | 159 ± 33.5
4 | O=C(C=Cc1ccc(C(F)(F)F)cc1)c1ccc2c(c1)oc(=O)n2CN1CCCCC1 [Compound 1e, 3-(Piperidin-1-ylmethyl)-6-(3-(4-(trifluoromethyl)phenyl)acryloyl)benzoxazol-2(3H)-one] | 18.1 ± 3.5 | 27.6 ± 2.9 | 84 ± 19.2
5 | CN(C)Cn1c(=O)oc2cc(C(=O)C=Cc3ccc(C(F)(F)F)cc3)ccc21 [Compound 1a, 3-[(Dimethylamino)methyl]-6-{3-[4-(trifluoromethyl)phenyl]acryloyl}benzoxazol-2(3H)-one] | 23.3 ± 2 | 31.4 ± 5.3 | 130 ± 17.6
6 | O=C(C=Cc1ccc(C(F)(F)F)cc1)c1ccc2c(c1)oc(=O)n2CN1CCOCC1 [Compound 1f, 3-(Morpholinomethyl)-6-{3-[4-(trifluoromethyl)phenyl]acryloyl}benzoxazol-2(3H)-one] | 41 ± 5.5 | 20.4 ± 1.7 | 35.2 ± 2
7 | CN1CCN(Cn2c(=O)oc3cc(C(=O)C=Cc4ccc(C(F)(F)F)cc4)ccc32)CC1 [Compound 1g, 3-[(4-Methylpiperazin-1-yl)methyl]-6-{3-[4-(trifluoromethyl)phenyl]acryloyl} benzoxazol-2(3H)-one] | 8.6 ± 1.9 | 53 ± 1.8 | 48.5 ± 10.2
8 | O=C(C=Cc1ccc(C(F)(F)F)cc1)c1ccc2c(c1)oc(=O)n2CN1CCCC1 [Compound 1d, 3-(Pyrrolidin-1-ylmethyl)-6-{3-[4-(trifluoromethyl)phenyl]acryloyl}benzoxazol-2(3H)-one] | 19 ± 3 | 12.3 ± 1.2 | 97.6 ± 14.4
